Reference: ChEMBL document CHEMBL5715260, “Selectivity Literature for EUbOPEN Chemogenomic Library” (2024)
Values belong to the compound of their own block, whether it stands above or below them.

How the values were obtained:
[1] = molecular target: T1, Hepatocyte nuclear factor 4-alpha (Homo sapiens) (UniProt P41235); experiment: Selectivity interaction (Reporter gene assay) EUB0001483aCl HNF4A; set-up: recommended concentration 10 uM
T1 sequence (whole entry): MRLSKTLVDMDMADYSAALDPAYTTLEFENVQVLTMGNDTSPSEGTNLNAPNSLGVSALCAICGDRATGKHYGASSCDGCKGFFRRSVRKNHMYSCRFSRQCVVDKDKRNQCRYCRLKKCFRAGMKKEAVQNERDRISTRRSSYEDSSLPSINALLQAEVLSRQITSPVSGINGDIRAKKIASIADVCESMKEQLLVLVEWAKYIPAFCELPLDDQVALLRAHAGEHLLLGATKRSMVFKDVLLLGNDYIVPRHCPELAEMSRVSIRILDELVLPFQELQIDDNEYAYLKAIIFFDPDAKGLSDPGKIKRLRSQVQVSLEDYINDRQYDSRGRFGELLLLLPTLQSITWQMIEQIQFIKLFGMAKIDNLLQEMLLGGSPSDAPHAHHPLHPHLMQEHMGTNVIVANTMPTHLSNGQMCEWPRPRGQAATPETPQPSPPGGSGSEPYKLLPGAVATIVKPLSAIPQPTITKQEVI

[2] = molecular target: T2, Nuclear receptor subfamily 2 group C member 1 (Homo sapiens) (UniProt P13056); experiment: Selectivity interaction (Reporter gene assay) EUB0001483aCl NR2C1; set-up: recommended concentration 10 uM
T2 sequence (whole entry): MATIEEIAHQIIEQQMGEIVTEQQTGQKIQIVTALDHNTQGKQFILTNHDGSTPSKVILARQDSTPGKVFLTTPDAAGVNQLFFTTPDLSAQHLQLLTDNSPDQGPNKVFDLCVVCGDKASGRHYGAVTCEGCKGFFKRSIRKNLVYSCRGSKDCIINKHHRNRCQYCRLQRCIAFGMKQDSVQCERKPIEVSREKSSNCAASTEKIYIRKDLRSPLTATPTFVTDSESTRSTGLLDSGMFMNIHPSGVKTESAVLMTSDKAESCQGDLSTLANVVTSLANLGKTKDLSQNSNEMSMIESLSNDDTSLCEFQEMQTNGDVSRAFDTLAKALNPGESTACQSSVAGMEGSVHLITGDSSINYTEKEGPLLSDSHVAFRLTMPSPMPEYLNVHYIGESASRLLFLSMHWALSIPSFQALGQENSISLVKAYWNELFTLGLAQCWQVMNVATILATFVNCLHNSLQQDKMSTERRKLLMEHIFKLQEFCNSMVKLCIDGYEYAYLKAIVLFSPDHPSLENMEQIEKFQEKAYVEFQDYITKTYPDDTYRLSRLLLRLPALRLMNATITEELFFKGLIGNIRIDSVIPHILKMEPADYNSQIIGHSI

[3] = molecular target: Nuclear receptor subfamily 2 group E member 1 (Homo sapiens) (UniProt Q9Y466); experiment: Selectivity interaction (Reporter gene assay) EUB0001483aCl NR2E1; set-up: recommended concentration 10 uM
Chain of Nuclear receptor subfamily 2 group E member 1 (Homo sapiens) (Q9Y466 whole entry): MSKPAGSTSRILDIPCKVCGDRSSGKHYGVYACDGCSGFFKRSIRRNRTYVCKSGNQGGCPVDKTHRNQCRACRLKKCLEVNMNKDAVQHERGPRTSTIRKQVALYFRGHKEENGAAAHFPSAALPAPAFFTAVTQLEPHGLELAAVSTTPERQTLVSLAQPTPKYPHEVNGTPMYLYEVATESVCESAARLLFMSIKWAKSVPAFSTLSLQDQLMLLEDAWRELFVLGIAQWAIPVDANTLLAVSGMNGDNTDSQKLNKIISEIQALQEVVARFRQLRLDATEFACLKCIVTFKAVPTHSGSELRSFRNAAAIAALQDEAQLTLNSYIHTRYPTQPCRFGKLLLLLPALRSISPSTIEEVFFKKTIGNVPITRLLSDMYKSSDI

[4] = molecular target: Nuclear receptor subfamily 4immunitygroup A member 1 (Homo sapiens) (UniProt P22736); experiment: Selectivity interaction (Reporter gene assay) EUB0001483aCl NR4A1; set-up: recommended concentration 10 uM
Chain of Nuclear receptor subfamily 4immunitygroup A member 1 (Homo sapiens) (P22736 whole entry): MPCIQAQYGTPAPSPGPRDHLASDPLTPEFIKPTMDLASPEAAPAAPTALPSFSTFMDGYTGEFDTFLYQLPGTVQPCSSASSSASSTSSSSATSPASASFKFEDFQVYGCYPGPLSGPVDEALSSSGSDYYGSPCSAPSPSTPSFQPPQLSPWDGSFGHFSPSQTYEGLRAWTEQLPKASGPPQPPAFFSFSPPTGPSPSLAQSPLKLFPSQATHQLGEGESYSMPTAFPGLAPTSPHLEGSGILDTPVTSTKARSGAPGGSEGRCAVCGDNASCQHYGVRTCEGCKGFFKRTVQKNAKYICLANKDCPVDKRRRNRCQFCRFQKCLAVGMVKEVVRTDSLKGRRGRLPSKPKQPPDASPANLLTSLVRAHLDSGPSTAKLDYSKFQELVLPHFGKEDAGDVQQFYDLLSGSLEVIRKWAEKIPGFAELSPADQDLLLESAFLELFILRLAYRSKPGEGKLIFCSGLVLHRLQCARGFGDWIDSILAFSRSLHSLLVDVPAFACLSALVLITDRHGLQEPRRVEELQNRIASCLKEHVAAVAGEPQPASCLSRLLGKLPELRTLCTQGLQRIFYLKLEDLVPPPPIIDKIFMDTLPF

[5] = molecular target: Steroidogenic factor 1 (Homo sapiens) (UniProt Q13285); experiment: Selectivity interaction (Reporter gene assay) EUB0001483aCl NR5A1; set-up: recommended concentration 10 uM
Chain of Steroidogenic factor 1 (Homo sapiens) (Q13285 whole entry): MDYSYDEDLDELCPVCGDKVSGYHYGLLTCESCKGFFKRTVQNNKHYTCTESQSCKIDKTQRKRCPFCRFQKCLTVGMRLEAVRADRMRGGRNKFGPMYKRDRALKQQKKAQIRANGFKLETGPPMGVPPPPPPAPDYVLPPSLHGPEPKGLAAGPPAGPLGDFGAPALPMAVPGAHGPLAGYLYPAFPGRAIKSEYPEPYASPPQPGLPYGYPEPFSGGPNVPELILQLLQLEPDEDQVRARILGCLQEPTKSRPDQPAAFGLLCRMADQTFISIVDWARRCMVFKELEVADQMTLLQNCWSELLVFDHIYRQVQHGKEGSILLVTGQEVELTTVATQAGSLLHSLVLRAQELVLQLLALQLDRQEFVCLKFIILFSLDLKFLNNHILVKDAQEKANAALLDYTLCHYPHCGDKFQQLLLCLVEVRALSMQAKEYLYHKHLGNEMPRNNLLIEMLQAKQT

[6] = molecular target: T3, Alpha trans-inducing protein (Human alphaherpesvirus 1) (UniProt A0A5J6DW59); experiment: Selectivity interaction (Reporter gene assay) EUB0001483aCl UL48; set-up: recommended concentration 10 uM
T3 sequence (A0A5J6DW59 as listed by the source): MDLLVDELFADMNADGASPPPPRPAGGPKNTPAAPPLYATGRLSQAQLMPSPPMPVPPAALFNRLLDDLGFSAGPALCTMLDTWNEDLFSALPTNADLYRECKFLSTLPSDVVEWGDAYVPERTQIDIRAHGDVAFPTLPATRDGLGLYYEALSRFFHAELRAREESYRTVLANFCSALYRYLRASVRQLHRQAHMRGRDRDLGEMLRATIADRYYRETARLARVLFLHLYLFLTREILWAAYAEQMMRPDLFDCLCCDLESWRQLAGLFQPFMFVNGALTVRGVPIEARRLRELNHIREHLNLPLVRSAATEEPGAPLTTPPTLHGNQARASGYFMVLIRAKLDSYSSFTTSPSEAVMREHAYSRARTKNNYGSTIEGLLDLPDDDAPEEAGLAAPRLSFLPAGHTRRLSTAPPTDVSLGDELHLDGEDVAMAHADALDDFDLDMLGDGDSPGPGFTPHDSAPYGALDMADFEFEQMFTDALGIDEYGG

[7] = molecular target: T4, Retinoic acid receptor RXR-alpha (Homo sapiens) (UniProt P19793); experiment: Selectivity interaction (Reporter gene assay) EUB0001483aCl RXRA; set-up: recommended concentration 10 uM; conditions: reference bexarotene 1 uM, Selectivity number of off-targets 0.0, Selectivity number of targets 1.0, Source Knowledge inhouse
T4 sequence (whole entry): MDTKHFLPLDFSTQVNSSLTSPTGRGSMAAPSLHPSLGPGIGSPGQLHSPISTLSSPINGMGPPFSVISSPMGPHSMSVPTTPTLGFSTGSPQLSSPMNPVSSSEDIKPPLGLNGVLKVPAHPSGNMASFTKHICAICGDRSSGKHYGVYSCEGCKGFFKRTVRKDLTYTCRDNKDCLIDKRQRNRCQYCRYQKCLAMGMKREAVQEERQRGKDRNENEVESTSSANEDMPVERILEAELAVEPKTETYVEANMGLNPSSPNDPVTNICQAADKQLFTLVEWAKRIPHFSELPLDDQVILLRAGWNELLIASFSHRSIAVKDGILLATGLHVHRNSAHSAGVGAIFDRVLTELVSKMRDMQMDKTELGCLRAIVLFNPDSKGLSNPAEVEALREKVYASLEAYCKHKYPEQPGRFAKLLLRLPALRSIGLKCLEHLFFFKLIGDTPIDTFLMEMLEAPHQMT

[8] = molecular target: DNA (cytosine-5)-methyltransferase 3B (Homo sapiens) (UniProt Q9UBC3); experiment: (§1) Selectivity interaction (Enzymatic assay (human methyltransferases)) EUB0002223a DNMT3B; set-up: recommended concentration 1 uM; conditions: at 50 µM
[9] = molecular target: DNA (cytosine-5)-methyltransferase 3B (Homo sapiens) (UniProt Q9UBC3); experiment: as §1; set-up: recommended concentration 1 uM; conditions: at 50 µM; remark: listed apart in the source
[10] = molecular target: DNA (cytosine-5)-methyltransferase 3B (Homo sapiens) (UniProt Q9UBC3); experiment: as §1; set-up: recommended concentration 1 uM; conditions: at 50 µM; remark: listed apart in the source
[11] = molecular target: DNA (cytosine-5)-methyltransferase 3B (Homo sapiens) (UniProt Q9UBC3); experiment: as §1; set-up: recommended concentration 1 uM; conditions: at 50 µM; remark: listed apart in the source
[12] = molecular target: DNA (cytosine-5)-methyltransferase 3A (Homo sapiens) (UniProt Q9Y6K1); conditions: at 50 µM
Chain of DNA (cytosine-5)-methyltransferase 3A (Homo sapiens) (Q9Y6K1 whole entry, looked up): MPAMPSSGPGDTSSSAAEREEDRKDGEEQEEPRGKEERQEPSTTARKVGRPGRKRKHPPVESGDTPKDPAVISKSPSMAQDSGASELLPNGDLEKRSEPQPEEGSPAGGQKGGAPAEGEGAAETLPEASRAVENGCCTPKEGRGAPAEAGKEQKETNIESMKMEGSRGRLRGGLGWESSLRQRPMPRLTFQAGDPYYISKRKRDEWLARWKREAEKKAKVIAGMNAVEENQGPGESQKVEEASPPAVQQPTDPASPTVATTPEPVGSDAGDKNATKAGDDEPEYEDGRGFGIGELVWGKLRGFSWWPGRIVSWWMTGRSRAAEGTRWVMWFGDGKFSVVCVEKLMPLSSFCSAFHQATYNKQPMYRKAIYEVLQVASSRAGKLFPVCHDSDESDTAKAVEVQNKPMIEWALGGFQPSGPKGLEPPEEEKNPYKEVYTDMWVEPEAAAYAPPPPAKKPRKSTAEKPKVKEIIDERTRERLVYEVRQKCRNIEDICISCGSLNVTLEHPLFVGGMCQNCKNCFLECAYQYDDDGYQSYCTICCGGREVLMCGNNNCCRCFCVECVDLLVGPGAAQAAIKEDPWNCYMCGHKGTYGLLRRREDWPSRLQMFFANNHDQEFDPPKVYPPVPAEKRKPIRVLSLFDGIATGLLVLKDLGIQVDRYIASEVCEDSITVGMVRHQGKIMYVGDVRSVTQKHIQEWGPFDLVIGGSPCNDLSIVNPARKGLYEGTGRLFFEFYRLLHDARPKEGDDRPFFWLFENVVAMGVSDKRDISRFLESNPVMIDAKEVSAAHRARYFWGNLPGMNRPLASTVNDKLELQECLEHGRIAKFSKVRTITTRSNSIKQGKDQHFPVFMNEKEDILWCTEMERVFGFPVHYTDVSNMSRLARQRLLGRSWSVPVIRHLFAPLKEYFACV

[13] = molecular target: DNA (cytosine-5)-methyltransferase 3A (Homo sapiens) (UniProt Q9Y6K1); conditions: at 50 µM; remark: listed apart in the source
[14] = molecular target: DNA (cytosine-5)-methyltransferase 3A (Homo sapiens) (UniProt Q9Y6K1); conditions: at 50 µM; remark: listed apart in the source
[15] = molecular target: DNA (cytosine-5)-methyltransferase 3A (Homo sapiens) (UniProt Q9Y6K1); conditions: at 50 µM; remark: listed apart in the source
[16] = molecular target: Oxysterols receptor LXR-alpha (Homo sapiens) (UniProt Q13133); experiment: Selectivity interaction (Reporter gene assay) EUB0001174a NR1H3; set-up: recommended concentration 1 uM; conditions: screened at recom. conc., Selectivity number of off-targets 1.0, Selectivity number of targets 19.0, Source Knowledge inhouse
Chain of Oxysterols receptor LXR-alpha (Homo sapiens) (Q13133 whole entry): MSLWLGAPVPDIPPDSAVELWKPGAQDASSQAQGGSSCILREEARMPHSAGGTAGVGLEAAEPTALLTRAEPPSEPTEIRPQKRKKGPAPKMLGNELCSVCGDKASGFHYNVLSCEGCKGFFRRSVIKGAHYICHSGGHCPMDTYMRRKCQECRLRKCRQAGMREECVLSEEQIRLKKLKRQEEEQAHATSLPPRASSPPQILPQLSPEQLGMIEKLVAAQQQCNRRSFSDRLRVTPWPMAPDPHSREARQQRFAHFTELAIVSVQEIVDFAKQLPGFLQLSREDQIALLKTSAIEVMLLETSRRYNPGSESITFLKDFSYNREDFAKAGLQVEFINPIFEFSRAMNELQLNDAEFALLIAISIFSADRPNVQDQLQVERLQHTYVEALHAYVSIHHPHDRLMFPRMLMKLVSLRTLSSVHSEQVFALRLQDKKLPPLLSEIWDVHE

[17] = molecular target: T5, Oxysterols receptor LXR-beta (Homo sapiens) (UniProt P55055); experiment: Selectivity interaction (Reporter gene assay) EUB0001174a NR1H2; set-up: recommended concentration 1 uM; conditions: screened at recom. conc., Selectivity number of off-targets 1.0, Selectivity number of targets 19.0, Source Knowledge inhouse
T5 sequence (whole entry): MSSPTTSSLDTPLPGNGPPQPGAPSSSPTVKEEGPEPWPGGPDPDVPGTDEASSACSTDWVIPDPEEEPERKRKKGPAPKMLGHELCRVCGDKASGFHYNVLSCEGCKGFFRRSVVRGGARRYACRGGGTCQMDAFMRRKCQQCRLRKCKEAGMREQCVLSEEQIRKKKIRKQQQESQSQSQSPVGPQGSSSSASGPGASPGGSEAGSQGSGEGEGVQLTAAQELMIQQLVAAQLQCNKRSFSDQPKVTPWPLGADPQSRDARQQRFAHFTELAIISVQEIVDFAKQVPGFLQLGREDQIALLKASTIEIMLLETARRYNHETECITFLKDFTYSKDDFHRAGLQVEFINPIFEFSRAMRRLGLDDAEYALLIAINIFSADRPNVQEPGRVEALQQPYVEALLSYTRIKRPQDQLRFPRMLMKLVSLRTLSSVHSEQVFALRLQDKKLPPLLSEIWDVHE

[18] = molecular target: Nuclear receptor subfamily 2 group E member 1 (Homo sapiens) (UniProt Q9Y466); experiment: Selectivity interaction (Reporter gene assay) EUB0001174a NR2E1; set-up: recommended concentration 1 uM; conditions: screened at recom. conc., Selectivity number of off-targets 1.0, Selectivity number of targets 5.0, Source Knowledge inhouse
[19] = molecular target: T1, Hepatocyte nuclear factor 4-alpha (Homo sapiens); experiment: Selectivity interaction (Reporter gene assay) EUB0001174a HNF4A; set-up: recommended concentration 1 uM
[20] = molecular target: T2, Nuclear receptor subfamily 2 group C member 1 (Homo sapiens); experiment: Selectivity interaction (Reporter gene assay) EUB0001174a NR2C1; set-up: recommended concentration 1 uM
[21] = molecular target: Nuclear receptor subfamily 4immunitygroup A member 1 (Homo sapiens) (UniProt P22736); experiment: Selectivity interaction (Reporter gene assay) EUB0001174a NR4A1; set-up: recommended concentration 1 uM
[22] = molecular target: Steroidogenic factor 1 (Homo sapiens) (UniProt Q13285); experiment: Selectivity interaction (Reporter gene assay) EUB0001174a NR5A1; set-up: recommended concentration 1 uM
[23] = molecular target: T3, Alpha trans-inducing protein (Human alphaherpesvirus 1); experiment: Selectivity interaction (Reporter gene assay) EUB0001174a UL48; set-up: recommended concentration 1 uM
[24] = molecular target: T4, Retinoic acid receptor RXR-alpha (Homo sapiens); experiment: Selectivity interaction (Reporter gene assay) EUB0001174a RXRA; set-up: recommended concentration 1 uM; conditions: reference bexarotene 1 uM, Selectivity number of off-targets 0.0, Selectivity number of targets 1.0, Source Knowledge inhouse
[25] = molecular target: T5, Oxysterols receptor LXR-beta (Homo sapiens); experiment: Selectivity interaction (Reporter gene assay) EUB0001173a NR1H2; set-up: recommended concentration 1 uM; conditions: screened at recom. conc., Selectivity number of off-targets 1.0, Selectivity number of targets 19.0, Source Knowledge inhouse
[26] = molecular target: T1, Hepatocyte nuclear factor 4-alpha (Homo sapiens); experiment: Selectivity interaction (Reporter gene assay) EUB0001173a HNF4A; set-up: recommended concentration 1 uM
[27] = molecular target: T2, Nuclear receptor subfamily 2 group C member 1 (Homo sapiens); experiment: Selectivity interaction (Reporter gene assay) EUB0001173a NR2C1; set-up: recommended concentration 1 uM
[28] = molecular target: Nuclear receptor subfamily 2 group E member 1 (Homo sapiens) (UniProt Q9Y466); experiment: Selectivity interaction (Reporter gene assay) EUB0001173a NR2E1; set-up: recommended concentration 1 uM
[29] = molecular target: Nuclear receptor subfamily 4immunitygroup A member 1 (Homo sapiens) (UniProt P22736); experiment: Selectivity interaction (Reporter gene assay) EUB0001173a NR4A1; set-up: recommended concentration 1 uM
[30] = molecular target: Steroidogenic factor 1 (Homo sapiens) (UniProt Q13285); experiment: Selectivity interaction (Reporter gene assay) EUB0001173a NR5A1; set-up: recommended concentration 1 uM
[31] = molecular target: T3, Alpha trans-inducing protein (Human alphaherpesvirus 1); experiment: Selectivity interaction (Reporter gene assay) EUB0001173a UL48; set-up: recommended concentration 1 uM
[32] = molecular target: T4, Retinoic acid receptor RXR-alpha (Homo sapiens); experiment: Selectivity interaction (Reporter gene assay) EUB0001173a RXRA; set-up: recommended concentration 1 uM
[33] = molecular target: T1, Hepatocyte nuclear factor 4-alpha (Homo sapiens); experiment: Selectivity interaction (Reporter gene assay) EUB0001478a HNF4A; set-up: recommended concentration 1 uM
[34] = molecular target: T2, Nuclear receptor subfamily 2 group C member 1 (Homo sapiens); experiment: Selectivity interaction (Reporter gene assay) EUB0001478a NR2C1; set-up: recommended concentration 1 uM
[35] = molecular target: Nuclear receptor subfamily 2 group E member 1 (Homo sapiens) (UniProt Q9Y466); experiment: Selectivity interaction (Reporter gene assay) EUB0001478a NR2E1; set-up: recommended concentration 1 uM
[36] = molecular target: Nuclear receptor subfamily 4immunitygroup A member 1 (Homo sapiens) (UniProt P22736); experiment: Selectivity interaction (Reporter gene assay) EUB0001478a NR4A1; set-up: recommended concentration 1 uM
[37] = molecular target: Steroidogenic factor 1 (Homo sapiens) (UniProt Q13285); experiment: Selectivity interaction (Reporter gene assay) EUB0001478a NR5A1; set-up: recommended concentration 1 uM
[38] = molecular target: T3, Alpha trans-inducing protein (Human alphaherpesvirus 1); experiment: Selectivity interaction (Reporter gene assay) EUB0001478a UL48; set-up: recommended concentration 1 uM
[39] = molecular target: T4, Retinoic acid receptor RXR-alpha (Homo sapiens); experiment: Selectivity interaction (Reporter gene assay) EUB0001478a RXRA; set-up: recommended concentration 1 uM

Structure (SMILES): CN1CCN(c2ccc(/C=C(\C#N)c3ccccc3Br)cc2)CC1
- Fold activation [1]: 1.03
- Fold activation [2]: 1.32
- Fold activation [3]: 1.32
- Fold activation [4]: 1.35
- Fold activation [5]: 1.5
- P-value [6]: 7.2e-05
- Relative activation [7]: 1.47%

Structure (SMILES): CCNC(=O)NCCSC[C@H]1O[C@@H](n2cnc3c(N)ncnc32)[C@H](O)[C@@H]1O
- Enzyme activity [8]: 45%
- Enzyme activity [9]: 45%
- Enzyme activity [10]: 45%
- Enzyme activity [11]: 45%
- Enzyme activity [12]: 38%
- Enzyme activity [13]: 38%
- Enzyme activity [14]: 38%
- Enzyme activity [15]: 38%

Structure (SMILES): C=C1/C(=C\C=C2/CCC[C@]3(C)[C@@H]([C@H](C)CCCC(C)(C)O)CC[C@@H]23)C[C@@H](O)C[C@@H]1O
- Remaining activity [33]: 0.883
- Fold activation [34]: 1.06
- Fold activation [35]: 1.03
- Fold activation [36]: 1.22
- Remaining activity [37]: 0.937
- P-value [38]: 6.76e-09
- Relative activation [39]: 0.656%

Next, values leading:

- Remaining activity [16]: 0.724
- Remaining activity [17]: 0.617
- Remaining activity [18]: 0.432
- Fold activation [19]: 1.1
- Remaining activity [20]: 0.543
- Remaining activity [21]: 0.847
- Remaining activity [22]: 0.982
- P-value [23]: 1.23e-07
- Relative activation [24]: 0.49%
Structure (SMILES): COc1cccc(Cn2cc(C(=O)Nc3ccc(C)c(S(=O)(=O)N4CCOCC4)c3)c(-c3ccc(C)cc3)n2)c1

- Fold activation [25]: 5.89
- Fold activation [26]: 1.11
- Fold activation [27]: 1.23
- Fold activation [28]: 1.08
- Fold activation [29]: 1.01
- Fold activation [30]: 0.997
- P-value [31]: 1.58e-05
- Relative activation [32]: 0.539%
Structure (SMILES): Cn1cc(C(=O)O)c2ccc(N3CCC(OCc4c(-c5c(Cl)cccc5Cl)noc4C4CC4)CC3)cc21
